SMILES strings stand for the structures.

Results on six compounds are retold here after patent US11174264B2, “TYK2 inhibitors and uses thereof” (Nimbus Lakshmi, Inc., priority 2019, dated 2021).

The target in one test is Tyk2 kinase domain (JH1) (Homo sapiens (Human), UniProt P29597). Kind of test: Tyk2 Radioactive Kinase Assay. The format is biochemical. Particulars: 10 μM compound, ATP at 10 μM; read-out: TYK2_IC50_RB (% INH_@_10 uM) at 10.0 uM [% INH]. As for the experimental part: (§1) The Tyk2 and JAK2 radioactive kinase assay measures the percent inhibition at the Tyk2 kinase domain (JH1) and the percent inhibition at the JAK2 kinase domain (JH1). Results of the assay are expressed as percent inhibition at 10 μM.

The target of another test is JAK2 kinase domain (JH1) (Homo sapiens (Human), UniProt O60674). Kind of test: JAK2 Radioactive Kinase Assay. The format is biochemical. Conditions: 10 μM compound, ATP at 10 μM; read-out: JAK2_IC50_RB (% INH_@_10 uM) at 10.0 uM [% INH]. As for the experimental part:
as §1

The subject of test [1] is IL-12 induced STAT4 phophorylation mediated by Tyk2/JAK2 (heterodimeric complex). As to the kind of experiment: IL-12 Induced pSTAT4 in Human PBMC. Type of test: cell-based. Particulars: for inhibition at 0.05 µM: Homo sapiens, PBMC, 0.05 μM compound, 1.7 ng/mL IL-12, read-out: PBMC_IL-12-pSTAT4 (% Inhibition_Average_@0.05 uM) [%]; for IC50: 1.7 ng/mL IL-12, read-out: PBMC_IL-12-pSTAT4 (IC50). The method, then:
Human PBMC are isolated from buffy coat and are stored frozen for assays as needed. […] 15 μl of compound or DMSO is added to the well at the desired concentrations and incubated at 1 hr at 37° C. 15 μl of stimulus (final concentration of 1.7 ng/mL IL-12) is added for 30 minutes prior to pSTAT4 and total STAT4 analysis using cell lysates prepared and analyzed by MSD reagents as per manufacturer protocol. The final DMSO concentration of compound in the assay is 0.1%.
The IL-12 Induced pSTAT4 assay evaluates the inhibition of IL-12 induced STAT4 phophorylation mediated by Tyk2/JAK2 (heterodimeric complex).

The target of the next test is JAK3 kinase domain (Homo sapiens (Human), UniProt P52333). As to the kind of experiment: JAK3 Radioactive Kinase Assay. Conditions: 10 μM compound; read-out: JAK3_IC50_RB (% INH_@_10 uM) at 10.0 uM [% INH]. Type of test: biochemical. The source says: (§2) Similar assays were run to measure the percent inhibition at the JAK1 and JAK3 kinase domains.
A further test deals with JAK1 kinase domain (Homo sapiens (Human), UniProt P23458). As to the kind of experiment: JAK1 Radioactive Kinase Assay. The format is biochemical. Particulars: 10 μM compound; read-out: JAK1_IC50_RB (% INH_@_10 uM) at 10.0 uM [% INH].
Text: as §2

Test [2] addresses human TYK2 (JH2domain-pseudokinase) (Homo sapiens (Human), UniProt P29597). As to the kind of experiment: TYK2 JH2 Domain Binding Assay (KINOMEscan). Particulars: read-out: hTYK2_JH2_Binding (Kd). As for the experimental part: Binding constants for compounds of the present invention against the JH2 domain were determined by the following protocol for a KINOMEscan® assay (DiscoveRx). A fusion protein of a partial length construct of human TYK2 (JH2domain-pseudokinase) (amino acids G556 to D888 based on reference sequence NP_003322.3) and the DNA binding domain of NFkB was expressed in transiently transfected HEK293 cells. From these HEK 293 cells, extracts were prepared in M-PER extraction buffer (Pierce) in the presence of Protease Inhibitor Cocktail Complete (Roche) and Phosphatase Inhibitor Cocktail Set II (Merck) per manufacturers' instructions. The TYK2 (JH2domain-pseudokinase) fusion protein was labeled with a chimeric double-stranded DNA tag containing the NFkB binding site (5′-[…]-3′) fused to an amplicon for qPCR readout, which was added directly to the expression extract (the final concentration of DNA-tag in the binding reaction is 0.1 nM).
The liganded beads were blocked with excess biotin and washed with blocking buffer (SeaBlock (Pierce), 1% BSA, 0.05% Tween 20, 1 mM DTT) to remove unbound ligand and to reduce nonspecific binding.
Extracts were used directly in binding assays without any enzyme purification steps at a ≥10,000-fold overall stock dilution (final DNA-tagged enzyme concentration <0.1 nM). Extracts were loaded with DNA-tag and diluted into the binding reaction in a two step process. First extracts were diluted 1:100 in 1× binding buffer (PBS/0.05% Tween 20/10 mM DTT/0.1% BSA/2 μg/ml sonicated salmon sperm DNA) containing 10 nM DNA-tag. This dilution was allowed to equilibrate at room temperature for 15 minutes and then subsequently diluted 1:100 in 1× binding buffer. […] Kds were determined using an 11-point 3-fold compound dilution series with three DMSO control points. […] The compounds were then diluted directly into the assays such that the final concentration of DMSO was 0.9%. All reactions performed in polypropylene 384-well plates. Each was a final volume of 0.02 mL. Assays were incubated with shaking for 1 hour at room temperature. Then the beads were pelleted and washed with wash buffer (1×PBS, 0.05% Tween 20) to remove displaced kinase and test compound. […] The qPCR protocol consisted of a 10 minute hot start at 95° C., followed by 35 cycles of 95° C. for 15 seconds, 60° C. for 1 minute.
The compounds were then diluted directly into the assays such that the final concentration of DMSO was 0.9%. […] Kd measurements were performed in duplicate.
Binding constants (Kd values) were calculated with a standard dose-response curve using the Hill equation: […]
The Hill Slope was set to −1.

Tyk2 kinase domain (JH1), sequence (P29597 897-1176): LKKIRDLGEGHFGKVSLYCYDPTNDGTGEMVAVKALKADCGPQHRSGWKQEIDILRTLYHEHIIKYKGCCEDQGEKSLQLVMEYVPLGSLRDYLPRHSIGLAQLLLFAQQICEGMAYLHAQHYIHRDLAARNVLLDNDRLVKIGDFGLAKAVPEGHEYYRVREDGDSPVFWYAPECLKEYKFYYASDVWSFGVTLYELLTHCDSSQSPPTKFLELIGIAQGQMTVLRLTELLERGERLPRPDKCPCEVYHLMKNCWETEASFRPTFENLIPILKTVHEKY
JAK3 kinase domain, sequence (P52333 822-1111): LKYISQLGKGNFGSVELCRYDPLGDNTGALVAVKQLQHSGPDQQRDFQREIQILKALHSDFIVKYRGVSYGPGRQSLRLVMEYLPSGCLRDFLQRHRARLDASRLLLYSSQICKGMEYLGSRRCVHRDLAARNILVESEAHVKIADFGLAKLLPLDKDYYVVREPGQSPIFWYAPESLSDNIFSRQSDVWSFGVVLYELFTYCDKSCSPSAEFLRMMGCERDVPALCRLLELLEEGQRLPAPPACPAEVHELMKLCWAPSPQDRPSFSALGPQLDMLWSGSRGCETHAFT
JAK1 kinase domain, sequence (P23458 875-1153): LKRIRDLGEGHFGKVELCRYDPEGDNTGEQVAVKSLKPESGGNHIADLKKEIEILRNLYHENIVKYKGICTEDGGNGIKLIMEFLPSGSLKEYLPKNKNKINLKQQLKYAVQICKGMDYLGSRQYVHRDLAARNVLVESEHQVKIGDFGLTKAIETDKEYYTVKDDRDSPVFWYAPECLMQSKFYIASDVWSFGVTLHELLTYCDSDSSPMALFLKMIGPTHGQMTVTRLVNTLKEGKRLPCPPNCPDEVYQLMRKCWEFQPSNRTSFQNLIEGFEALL
human TYK2 (JH2domain-pseudokinase), sequence (P29597 556-888): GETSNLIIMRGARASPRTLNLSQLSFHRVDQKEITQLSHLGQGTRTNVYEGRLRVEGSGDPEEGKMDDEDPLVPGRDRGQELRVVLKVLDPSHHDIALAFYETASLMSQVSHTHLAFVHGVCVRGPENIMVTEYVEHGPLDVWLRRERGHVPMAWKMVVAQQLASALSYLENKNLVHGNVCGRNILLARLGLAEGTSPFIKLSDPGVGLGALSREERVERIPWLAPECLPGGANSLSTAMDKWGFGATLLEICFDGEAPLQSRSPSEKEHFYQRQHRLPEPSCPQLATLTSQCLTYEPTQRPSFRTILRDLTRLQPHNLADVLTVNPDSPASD
JAK2 kinase domain (JH1), sequence (O60674 849-1124): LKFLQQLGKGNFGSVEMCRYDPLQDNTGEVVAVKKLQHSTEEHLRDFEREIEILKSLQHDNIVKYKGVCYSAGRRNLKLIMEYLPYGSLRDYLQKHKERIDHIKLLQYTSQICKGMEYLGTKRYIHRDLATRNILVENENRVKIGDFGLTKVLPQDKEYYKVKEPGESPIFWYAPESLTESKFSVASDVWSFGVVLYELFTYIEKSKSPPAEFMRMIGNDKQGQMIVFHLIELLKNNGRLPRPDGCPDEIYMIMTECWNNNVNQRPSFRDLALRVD

Turning to `CNc1cc(Nc2cccn(-c3ccccn3)c2=O)nn2c(C(=O)NC3CC3)cnc12` [Compound I-4, N-cyclopropyl-8-(methylamino)-6-((2-oxo-2H-[1,2′-bipyridin]-3-yl)amino)imidazo[1,2-b]pyridazine-3-carboxamide], the inhibition at 10 µM on Tyk2 kinase domain (JH1), on JAK2 kinase domain (JH1), on JAK3 kinase domain and at JAK1 kinase domain was less than 50% each time. Besides, the inhibition at 0.05 µM in test [1] was less than 50%. In addition, the dissociation constant Kd in test [2] is less than 0.2 nM.
For the compound `CNc1cc(-c2cn(C(C)C)c3ncccc23)nn2c(C(=O)N[C@@H]3C[C@@H]3F)cnc12` [Compound I-5, N-((1R,2S)-2-fluorocyclopropyl)-6-(1-isopropyl-1H-pyrrolo[2,3-b]pyridin-3-yl)-8-(methylamino)imidazo[1,2-b]pyridazine-3-carboxamide], the inhibition at 10 µM on Tyk2 kinase domain (JH1), at JAK2 kinase domain (JH1), on JAK3 kinase domain and on JAK1 kinase domain was less than 50% each time. In addition, the IC50 in test [1] was less than 100 nM. For the same compound, the inhibition at 0.05 µM in test [1] lay in the range of 70 to 90%. The Kd in test [2] was less than 0.2 nM.
Take `CNc1cc(-c2cn(CCN3CCOCC3)c3ncccc23)nn2c(C(=O)N[C@@H]3C[C@@H]3F)cnc12` [Compound I-6, N-((1R,2S)-2-fluorocyclopropyl)-8-(methylamino)-6-(1-(2-morpholinoethyl)-1H-pyrrolo[2,3-b]pyridin-3-yl)imidazo[1,2-b]pyridazine-3-carboxamide]: the inhibition at 10 µM at Tyk2 kinase domain (JH1), on JAK2 kinase domain (JH1), on JAK3 kinase domain and on JAK1 kinase domain was less than 50% throughout. The concentration for half-maximal inhibition (IC50) in test [1] was less than 100 nM. The inhibition at 0.05 µM in test [1] was less than 50%. The equilibrium dissociation constant (Kd) in test [2] was less than 0.2 nM.
With `CNc1cc(-c2cn(C(C)C)c3ncccc23)nn2c(C(=O)N[C@@H]3CC[C@@H]3O)cnc12` [Compound I-7, N-((1R,2S)-2-hydroxycyclobutyl)-6-(1-isopropyl-1H-pyrrolo[2,3-b]pyridin-3-yl)-8-(methylamino)imidazo[1,2-b]pyridazine-3-carboxamide], the inhibition at 10 µM on Tyk2 kinase domain (JH1), on JAK2 kinase domain (JH1), at JAK3 kinase domain and on JAK1 kinase domain was less than 50% each time. Besides, the equilibrium dissociation constant (Kd) in test [2] is less than 0.2 nM.
Consider `CNc1cc(-c2cn(C(C)C)c3ncccc23)nn2c(C(=O)N[C@H]3CC[C@H]3O)cnc12` [Compound I-10, N-((1S,2R)-2-hydroxycyclobutyl)-6-(1-isopropyl-1H-pyrrolo[2,3-b]pyridin-3-yl)-8-(methylamino)imidazo[1,2-b]pyridazine-3-carboxamide], for which the inhibition at 10 µM on Tyk2 kinase domain (JH1), on JAK2 kinase domain (JH1), at JAK3 kinase domain and at JAK1 kinase domain was less than 50% each time. Besides, the IC50 in test [1] is less than 100 nM. In test [1], the inhibition at 0.05 µM fell in the range of 70 to 90%. Further, the Kd in test [2] is less than 0.2 nM.
On to `CNc1cc(-c2cn(CCN3CCOCC3)c3ncccc23)nn2c(C(=O)N[C@H]3CC[C@H]3O)cnc12` [Compound I-12, N-((1S,2R)-2-hydroxycyclobutyl)-8-(methylamino)-6-(1-(2-morpholinoethyl)-1H-pyrrolo[2,3-b]pyridin-3-yl)imidazo[1,2-b]pyridazine-3-carboxamide], for which the inhibition at 10 µM on Tyk2 kinase domain (JH1), at JAK2 kinase domain (JH1), at JAK3 kinase domain and on JAK1 kinase domain was less than 50% each time. In test [1], the inhibition at 0.05 µM is less than 50%. For the same compound, the Kd in test [2] was less than 0.2 nM.

The term Kd denotes the equilibrium constant for the complex coming apart. The IC50 is the concentration that gives 50% inhibition.
